Test results as given in patent US20060029644A1, “In vitro biochemical reactions with free anhydrous D-ribose” (priority 2004, published 2006).
Entries after “also recorded” stand apart in the source; their conditions may differ.

How the values were obtained:
[1] = taken in 20 grams or less a day; cited from earlier work
[2] = stability of the powder on heating; assay type: physicochemical; conditions: for stability of the powder when heated: 150° F., heated alone or mixed with each other
solubility in water = assay type: physicochemical

## O=C[C@H](O)[C@H](O)[C@H](O)CO [anhydrous D-ribose]
[1]
  toxicity: extremely low toxicity
[2]
  temperature to which the powder can be heated without losing its powdery form: < 120 ° F.
  stability of the powder when heated: unstable

## O=C(CO)[C@@H](O)[C@H](O)[C@H](O)CO [fructose, reference compound]
[2]
  stability of the powder when heated: remain powders

## OC[C@H]1O[C@@H](O[C@H]2[C@H](O)[C@@H](O)C(O)O[C@@H]2CO)[C@H](O)[C@@H](O)[C@H]1O (stereo partly drawn) [lactose, reference compound]
[2]
  stability of the powder when heated: remain powders

## O.O=C[C@H](O)[C@H](O)[C@H](O)CO [ribose monohydrate, D-ribose monohydrate]
Solubility in water; listed as monohydrate
  solubility in water: very soluble in water
Solubility in water; monohydrate
  solubility in water: highly soluble in water; also recorded: extreme solubility; also recorded: highest possible solubility in water
[2]; especially with water, sugars and some consumable monohydrates
  stability compared with the anhydrous powder: far more stable

## OC[C@H]1O[C@@](CO)(O[C@H]2O[C@H](CO)[C@@H](O)[C@H](O)[C@H]2O)[C@@H](O)[C@@H]1O [sucrose, reference compound]
[2]
  stability of the powder when heated: remain powders
